#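 Compound exposure: 48 hours, 5 concentrations, 96-well plates. Abbreviation: GI50, concentration required for 50% inhibition of growth. At the TGI there is no net growth.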
# Columns and labels:
# Assay in all cases: growth of human tumour cells (NCI), 48 h
# SK-MEL-2 melanoma = system: SK-MEL-2 melanoma
# A498 renal = system: A498 renal
# SR leukemia = system: SR leukemia
# ACHN renal = system: ACHN renal
# NCI-H23 lung = system: NCI-H23 lung
# SK-MEL-28 melanoma = system: SK-MEL-28 melanoma
# T-47D breast = system: T-47D breast
# HOP-62 NSCLC = system: HOP-62 NSCLC
# MDA-MB-435 = system: MDA-MB-435
# UACC-62 melanoma = system: UACC-62 melanoma
# OVCAR-5 ovarian = system: OVCAR-5 ovarian
# UO-31 renal = system: UO-31 renal
# IGROV1 ovarian = system: IGROV1 ovarian
# SW-620 colon = system: SW-620 colon
# TK-10 renal = system: TK-10 renal
# M14 melanoma = system: M14 melanoma
# HL-60(TB) leukemia = system: HL-60(TB) leukemia
# OVCAR-8 ovarian = system: OVCAR-8 ovarian
# SF-268 CNS = system: SF-268 CNS
# HT29 colon = system: HT29 colon
# SF-539 CNS = system: SF-539 CNS
# MCF7 breast = system: MCF7 breast
# SN12C renal = system: SN12C renal
# HOP-92 NSCLC = system: HOP-92 NSCLC
# KM12 colon = system: KM12 colon
# OVCAR-4 ovarian = system: OVCAR-4 ovarian
# SNB-19 CNS = system: SNB-19 CNS
# COLO 205 colon = system: COLO 205 colon
# BT-549 breast = system: BT-549 breast
# UACC-257 melanoma = system: UACC-257 melanoma
# MALME-3M melanoma = system: MALME-3M melanoma
# MOLT-4 leukemia = system: MOLT-4 leukemia
# SK-OV-3 ovarian = system: SK-OV-3 ovarian
# RXF 393 renal = system: RXF 393 renal
# MDA-MB-468 breast = system: MDA-MB-468 breast
# HCC-2998 colon = system: HCC-2998 colon
# A549 NSCLC = system: A549 NSCLC
# MDA-MB-231 breast = system: MDA-MB-231 breast
# NCI-H460 lung = system: NCI-H460 lung
# 786-0 renal = system: 786-0 renal
# CCRF-CEM leukemia = system: CCRF-CEM leukemia
# HCT-116 colon = system: HCT-116 colon
# HCT-15 colon = system: HCT-15 colon
# K-562 leukemia = system: K-562 leukemia
# NCI-H226 lung = system: NCI-H226 lung
# EKVX NSCLC = system: EKVX NSCLC
# U251 CNS = system: U251 CNS
# SK-MEL-5 melanoma = system: SK-MEL-5 melanoma
# HS 578T breast = system: HS 578T breast
# SF-295 CNS = system: SF-295 CNS
# NCI-H522 lung = system: NCI-H522 lung
# CAKI-1 renal = system: CAKI-1 renal
# OVCAR-3 ovarian = system: OVCAR-3 ovarian
smiles,measurement,setting,value
COc1ccc(N=Nc2c(N)nn3c(N)c(C#N)c(-c4ccccc4)nc23)cc1,GI50,SK-MEL-2 melanoma,16.6 µM
same,TGI,SK-MEL-2 melanoma,> 100 µM
same,GI50,A498 renal,> 100 µM
same,TGI,A498 renal,> 100 µM
same,GI50,SR leukemia,> 100 µM
same,TGI,SR leukemia,> 100 µM
same,GI50,ACHN renal,4.08 µM
same,TGI,ACHN renal,> 100 µM
same,GI50,NCI-H23 lung,5.05 µM
same,TGI,NCI-H23 lung,> 100 µM
same,GI50,SK-MEL-28 melanoma,> 100 µM
same,TGI,SK-MEL-28 melanoma,> 100 µM
same,GI50,T-47D breast,2.75 µM
same,TGI,T-47D breast,> 100 µM
same,GI50,HOP-62 NSCLC,3.7 µM
same,TGI,HOP-62 NSCLC,41.5 µM
same,GI50,MDA-MB-435,> 100 µM
same,TGI,MDA-MB-435,> 100 µM
same,GI50,UACC-62 melanoma,20.9 µM
same,TGI,UACC-62 melanoma,> 100 µM
same,GI50,OVCAR-5 ovarian,> 100 µM
same,TGI,OVCAR-5 ovarian,> 100 µM
same,GI50,UO-31 renal,8.22 µM
same,TGI,UO-31 renal,> 100 µM
same,GI50,IGROV1 ovarian,2.6 µM
same,TGI,IGROV1 ovarian,> 100 µM
same,GI50,SW-620 colon,> 100 µM
same,TGI,SW-620 colon,> 100 µM
same,GI50,TK-10 renal,5.88 µM
same,TGI,TK-10 renal,> 100 µM
same,GI50,M14 melanoma,> 100 µM
same,TGI,M14 melanoma,> 100 µM
same,GI50,HL-60(TB) leukemia,> 100 µM
same,TGI,HL-60(TB) leukemia,> 100 µM
same,GI50,OVCAR-8 ovarian,4.61 µM
same,TGI,OVCAR-8 ovarian,> 100 µM
same,GI50,SF-268 CNS,5.88 µM
same,TGI,SF-268 CNS,> 100 µM
same,GI50,HT29 colon,> 100 µM
same,TGI,HT29 colon,> 100 µM
same,GI50,SF-539 CNS,3.26 µM
same,TGI,SF-539 CNS,18.6 µM
same,GI50,MCF7 breast,1.89 µM
same,TGI,MCF7 breast,> 100 µM
same,GI50,SN12C renal,5.8 µM
same,TGI,SN12C renal,> 100 µM
same,GI50,HOP-92 NSCLC,2.65 µM
same,TGI,HOP-92 NSCLC,52.6 µM
same,GI50,KM12 colon,> 100 µM
same,TGI,KM12 colon,> 100 µM
same,GI50,OVCAR-4 ovarian,2.78 µM
same,TGI,OVCAR-4 ovarian,29.3 µM
same,GI50,SNB-19 CNS,5.06 µM
same,TGI,SNB-19 CNS,44.1 µM
same,GI50,COLO 205 colon,> 100 µM
same,TGI,COLO 205 colon,> 100 µM
same,GI50,BT-549 breast,4.29 µM
same,TGI,BT-549 breast,> 100 µM
same,GI50,UACC-257 melanoma,> 100 µM
same,TGI,UACC-257 melanoma,> 100 µM
same,GI50,MALME-3M melanoma,5.46 µM
same,TGI,MALME-3M melanoma,> 100 µM
same,GI50,MOLT-4 leukemia,> 100 µM
same,TGI,MOLT-4 leukemia,> 100 µM
same,GI50,SK-OV-3 ovarian,6.04 µM
same,TGI,SK-OV-3 ovarian,> 100 µM
same,GI50,RXF 393 renal,3.17 µM
same,TGI,RXF 393 renal,12 µM
same,GI50,MDA-MB-468 breast,4.07 µM
same,TGI,MDA-MB-468 breast,> 100 µM
same,GI50,HCC-2998 colon,> 100 µM
same,TGI,HCC-2998 colon,> 100 µM
same,GI50,A549 NSCLC,> 100 µM
same,TGI,A549 NSCLC,> 100 µM
same,GI50,MDA-MB-231 breast,3.66 µM
same,TGI,MDA-MB-231 breast,50.5 µM
same,GI50,NCI-H460 lung,4.06 µM
same,TGI,NCI-H460 lung,> 100 µM
same,GI50,786-0 renal,12.8 µM
same,TGI,786-0 renal,> 100 µM
same,GI50,CCRF-CEM leukemia,> 100 µM
same,TGI,CCRF-CEM leukemia,> 100 µM
same,GI50,HCT-116 colon,> 100 µM
same,TGI,HCT-116 colon,> 100 µM
same,GI50,HCT-15 colon,> 100 µM
same,TGI,HCT-15 colon,> 100 µM
same,GI50,K-562 leukemia,> 100 µM
same,TGI,K-562 leukemia,> 100 µM
same,GI50,NCI-H226 lung,2.56 µM
same,TGI,NCI-H226 lung,24.8 µM
same,GI50,EKVX NSCLC,8.82 µM
same,TGI,EKVX NSCLC,> 100 µM
same,GI50,U251 CNS,3.94 µM
same,TGI,U251 CNS,> 100 µM
same,GI50,SK-MEL-5 melanoma,9.02 µM
same,TGI,SK-MEL-5 melanoma,> 100 µM
same,GI50,HS 578T breast,3 µM
same,TGI,HS 578T breast,65 µM
same,GI50,SF-295 CNS,4.03 µM
same,TGI,SF-295 CNS,> 100 µM
same,GI50,NCI-H522 lung,6.25 µM
same,TGI,NCI-H522 lung,> 100 µM
same,GI50,CAKI-1 renal,4.58 µM
same,TGI,CAKI-1 renal,> 100 µM
same,GI50,OVCAR-3 ovarian,4.18 µM
same,TGI,OVCAR-3 ovarian,> 100 µM
